We go through 13 compounds from US8058243B2, “Method for treating a brain cancer with ifenprodil” (HSC Research and Development Limited Partnership, priority 2006, dated 2011).

Read-outs that look alike come from different tables or passages of the source.

For data set [1], the system named is murine neural precursor cells (neurosphere cultures). The data set can be described thus: HTS of LOPAC library against secondary neurosphere cultures, MTT proliferation assay at 3 μM, day 7 (z score, P value). The data set is classed as cell-based, mouse. (In general: Tetrazolium assays rely on reduction of a dye to a coloured formazan, in cell work by metabolically active cells.)

Data set [2] deals with mouse NSC neurosphere cultures. The data set can be described thus: Dose-response curves and EC50, neurosphere MTT proliferation, 7 days. The data set is classed as cell-based.
The subject of data set [3] is ptc1+/− medulloblastoma precursor cells (neurosphere cultures). The data set can be described thus: Medulloblastoma tumor sphere MTT proliferation EC50. It is filed as cell-based, mouse. The source says:
(§1) Astrocyte Screen and Neurosphere Selectivity Assessment. […] Murine Medulloblastoma Generation and Culture. […] Flow Cytometry. […] Results

Data set [4] has as its system Ptch1+/− Trp53−/− medulloblastoma neurosphere cultures. The data set can be described thus: Tumor sphere MTT proliferation EC50. The data set is classed as cell-based, mouse. Conditions: read-out: Ptch1+/− Trp53−/− neurosphere EC50.
From the text: as §1

In another data set the test system is NPC colony formation. The data set can be described thus: Inhibition of colony formation by bromocriptine with and without (±)-sulpiride. It is filed as cell-based, mouse.
For data set [5], the system named is hGBM1 precursors (WHO grade IV GBM). As to the kind of experiment: Human glioblastoma precursor EC50 (hGBM1). The data set is classed as cell-based.
Data set [6] relates to hGBM2 precursors (WHO grade IV GBM, giant cell variant). As to the kind of experiment: Human glioblastoma precursor EC50 (hGBM2). It is filed as cell-based.
For data set [7] the following is noted: cited from earlier work.
In data set [8] the test system is neural precursors derived from human fetal CNS tissue (hFetal). As to the kind of experiment: Human fetal neural precursor EC50. It is filed as cell-based.
The subject of data set [9] is ptc1+/− tumor cell growth. The following applies: cited from earlier work.
For data set [10], the system named is nestin expression in NPCs. As to the kind of experiment: Flow cytometric analysis of nestin in NPCs. It is filed as cell-based, mouse. On the technique in general: Flow cytometry measures light scatter and fluorescence of single cells or particles in a stream.
Data set [11] concerns NSC fraction of neurosphere cultures. Conditions: 7 day pretreatment at estimated EC75 (apomorphine EC50); 2,000 or 1,000 cells.
The test system of data set [12] is medulloblastoma formation. Conditions: mice; cited from earlier work.
The mark [13] stands for this setting: 168 h, normal mouse neurosphere cultures, MTT, 7 days, read-out: Neurosphere EC50.
Where [14] appears, read: Mus musculus, read-out: EC 50% Neurosphere, Table 5.
Where [15] appears, read: Mus musculus, Table 8, read-out: Neurosphere EC50.
Setting [16] is: Mus musculus, ptc1+/− medulloblastoma derived neurospheres, read-out: Medulloblastoma Neurosphere EC50.
Where [17] appears, read: cultures derived from mouse cerebellar tumor samples, read-out: Ptch1+/− neurosphere EC50.
The mark [18] stands for this setting: cultures derived from mouse cerebellar tumor samples.
The mark [19] stands for this setting: LOPAC primary screen, neurosphere MTT proliferation, 3 μM, day 7.
Where [20] appears, read: yes/no: significantly inhibited neurosphere proliferation (P<0.01) in the primary screen.
The mark [21] stands for this setting: Table 8, read-out: Neurosphere EC50.
[22] abbreviates: LOPAC library screen, 3 μM, MTT, secondary neurosphere cultures, day 7.
[23] abbreviates: normal mouse neurosphere cultures, MTT, 7 days, read-out: Neurosphere EC50.
Where [24] appears, read: read-out: EC 50% Neurosphere, Table 5.
The mark [25] stands for this setting: ptc1+/− medulloblastoma derived neurospheres, read-out: Medulloblastoma Neurosphere EC50.
The mark [26] stands for this setting: Mus musculus, read-out: Ptch1+/− neurosphere EC50.

For `CC(C)(C)[C@]1(O)CCN2C[C@H]3c4ccccc4CCc4cccc(c43)[C@@H]2C1` (racemic) [(±) Butaclamol (4), (±)-Butaclamol], in [1], the Activity result is listed as “yes”. In [1] (168 h, 3 µM), this compound had a Z score of −5.934. For the same compound, the EC50 was found to be 785 nM in [2] (setting [13]); 785 nM in [2] (setting [14]); 785 nM in data set [2] (setting [15]); 751 nM in data set [3] (setting [16]); 751 nM in data set [3] (setting [17]); 2530 nM in data set [4] (setting [18]).
For the compound `CCN1CCCC1CNC(=O)c1cc(S(N)(=O)=O)ccc1OC` (racemic) [(±)-sulpride, reference compound], in data set [1] (setting [19]), the Z score is reported as −0.284. Besides, the Activity entry in data set [1] (setting [20]) was “no”. The “rescue of the inhibitory effects of bromocriptine” value in the data set with NPC colony formation (colony formation and MTT values) is “able to competitively rescue the inhibitory effects”.
`CC(C)C[C@H]1C(=O)N2CCC[C@H]2[C@]2(O)O[C@](NC(=O)[C@@H]3C=C4c5cccc6[nH]c(Br)c(c56)C[C@H]4N(C)C3)(C(C)C)C(=O)N12` [(+)-Bromocripline (18), (+)-Bromocripline]: the EC50 in data set [2] (setting [21]) amounted to 1190 nM; with NPC colony formation (with (±)-sulpiride supplementation, read-out: EC50 of inhibition of colony formation, with sulpiride) it was 2500 nM; in the data set on NPC colony formation (without sulpiride, read-out: EC50 of inhibition of colony formation, without sulpiride) it was 1200 nM.
Take `CN1CCc2cccc3c2[C@H]1Cc1ccc(O)c(O)c1-3` [(R)-(−)-Apomorphine (6), (R)-(−)-Apomorphine]: the Activity result in data set [1] is “yes”. Further, the “Z Score” value in [1] (setting [22]) was −11.27. For the same compound, in data set [1] (setting [19]), the Z score is −11.274. Also, the EC50 in data set [2] (setting [13]) was 350 nM; in [2] (setting [14]) it was 350 nM; in data set [2] (setting [15]) it was 350 nM; in data set [3] (setting [16]) it was 168 nM; in data set [3] (setting [17]) it was 168 nM; in data set [5] (Homo sapiens), 14600 nM. Moreover, the EC50 in data set [6] (Homo sapiens) turned out to be 310 nM. The “Effective in vivo concentrations” value in data set [7] is 6 to 7 µM.
For the compound `CCN(CC)CCOCCOC(=O)C1(c2ccccc2)CCCC1` [Carbetapentane (10), Carbetapentane], the “Z Score” value in data set [1] (setting [22]) is recorded as −8.021. Besides, the Z score in data set [1] (setting [19]) is recorded as −8.021. Besides, in data set [1] (setting [20]), the Activity result is reported as “yes”. Further, the EC50 in [2] (setting [13]) is 756 nM; in data set [2] (setting [14]) it was 756 nM; in data set [2] (setting [15]) it was 756 nM; in data set [3] (setting [16]) it was 2080 nM; in data set [3] (setting [17]), 2080 nM; in [5] (Homo sapiens) it was 5440 nM. For the same compound, the EC50 in data set [6] (Homo sapiens) was found to be 1730 nM.
Take `N.N.O=C([O-])C1(C(=O)[O-])CCC1.[Pt+2]` [Carboplatin (3), Carboplatin]: in data set [1] (setting [22]), the “Z Score” value is on record as −6.204. This compound also gave a Z score in data set [1] (setting [19]) of −6.204. Moreover, in data set [1] (yes = significantly inhibited neurosphere proliferation (P<0.01) in the primary screen), the Activity entry is given as “yes”. Further, the EC50 in [2] (setting [21]) was determined as 489 nM; in data set [2] (setting [23]), 489 nM; in [2] (setting [24]), 489 nM; in [3] (setting [17]), 196 nM; in data set [3] (setting [25]), 196 nM; in data set [8], 430 nM. Also, the figures for the EC50 in data set [5] and in data set [6] were 2040 nM and 3300 nM, respectively.
Consider `C[C@@H]1C[C@@H]([C@H](O)CC2CC(=O)NC(=O)C2)C(=O)[C@@H](C)C1` [Cycloheximide (1), Cycloheximide], for which the EC50 in data set [3] (Mus musculus, read-out: Medulloblastoma Neurosphere EC50) is 42 nM; in data set [3] (setting [26]), 42 nM; in data set [4] (Mus musculus), 54 nM.
On to `CC1=C2C[C@H]3[C@@H](CC=C4C[C@@H](O)CC[C@@]43C)[C@@H]2CC[C@]12O[C@@H]1C[C@H](C)CN[C@H]1[C@H]2C` [Cyclopamine (16), Cyclopamine], for which the EC50 in data set [3] (setting [26]) was 1000 nM. Besides, the “reported concentration for inhibition of ptc1+/− tumor cell growth in vitro” value in data set [9] is 5 µM.
Take `COc1cc([C@@H]2c3cc4c(cc3[C@@H](O[C@@H]3O[C@@H]5CO[C@@H](C)O[C@H]5[C@H](O)[C@H]3O)[C@H]3COC(=O)[C@H]23)OCO4)cc(OC)c1O` [Etoposide (2), Etoposide]: in data set [1] (setting [22]), the “Z Score” value is listed as −11.1. The same compound gave a Z score in data set [1] (setting [19]) of −11.102. In addition, the Activity result in data set [1] (setting [20]) is on record as “yes”. Moreover, the EC50 in data set [2] (setting [13]) worked out at 340 nM; in data set [2] (setting [14]) it was 340 nM; in data set [2] (setting [15]), 340 nM; in [3] (setting [16]), 208 nM; in [3] (setting [17]), 208 nM; in data set [8] it was 160 nM. Moreover, the EC50 in data set [5] (Homo sapiens) was 620 nM; in data set [6] (Homo sapiens) it was 270 nM.
On to `CC(C(O)c1ccc(O)cc1)N1CCC(Cc2ccccc2)CC1` (stereo not shown) [Ifenprodil (9), Ifenprodil], for which the “Z Score” value in [1] (setting [22]) is reported as −8.904. For the same compound, in [1] (setting [19]), the Z score is recorded as −8.904. Moreover, the Activity result in data set [1] (setting [20]) is “yes”. For the same compound, the EC50 turned out to be 616 nM in data set [2] (setting [13]); 616 nM in data set [2] (setting [14]); 616 nM in data set [2] (setting [15]); 451 nM in data set [3] (setting [16]); 451 nM in [3] (setting [17]); 807 nM in data set [4] (setting [18]). The EC50 in data set [8] was 420 nM; in data set [5] (Homo sapiens), 1990 nM; in [6] (Homo sapiens), 206 nM. In addition, in [10] (2 d treatment, 5 μM, vehicle 20%), the nestin negative cells is listed as 63%. In addition, the “expression of the immature NPC marker nestin” value in data set [10] (treatment for 2 d) is recorded as “substantially decreased”.
As to `Nc1ccc(CCN2CCN(c3cccc(C(F)(F)F)c3)CC2)cc1` [PAPP (14), p-aminophenethyl-m-trifluoromethylphenyl piperazine], in data set [1], the Activity result was “yes”. Moreover, the “Z Score” value in [1] was −10.73. In data set [1], this compound returned a Z score of −10.728. Moreover, the EC50 in [2] (setting [21]) was 31 nM; in [2] (setting [23]), 31 nM; in data set [2] (setting [24]), 31 nM; in data set [3] (setting [17]), 169 nM; in data set [3] (setting [25]), 169 nM; in data set [4] (setting [18]), 97 nM. The values for the EC50 in [8], in data set [5] and in [6] were 220 nM, 1870 nM and 310 nM, respectively. Further, the “expression of the immature NPC marker nestin” value in data set [10] is given as “substantially decreased”. Besides, the “secondary neurosphere formation upon re-culture in the absence of drug (replating efficiency)” value in [11] was “reduction in replating efficiency”.
For `O=C(Nc1ccccc1)C12CC1/C(=N\O)c1ccccc1O2` (stereo not shown) [PHCCC], in [12], the “medulloblastoma formation in vivo” value is “attenuate medulloblastoma formation”.
On to `O[Si](CCCN1CCCCC1)(c1ccc(F)cc1)C1CCCCC1` (stereo not shown) [p-F-HHSiD (8), p-fluoro-hexahydrosila-difenidol], for which the EC50 in data set [2] (setting [21]) was 441 nM; in data set [2] (setting [23]) it was 441 nM; in data set [2] (setting [24]), 441 nM; in data set [3] (setting [17]), 1120 nM; in [3] (setting [25]), 1120 nM; in data set [4] (setting [18]) it was 1370 nM. In addition, the EC50 in [8] stood at 10600 nM; in data set [5], 12600 nM; in [6] it was 1230 nM.
